{"source": "patent US12398355B2", "about": "“Micro physiological model for neuronal and muscular diseases and disorders” (Massachusetts Institute of Technology, priority 2019, dated 2025)", "key": {"[1]": {"tested_on": "3D motor unit model (MN spheroid and skeletal muscle fiber bundle)"}, "[2]": {"tested_on": "3D motor unit model (hESC-derived MN spheroid and iPSC-derived skeletal muscle fiber bundle with NMJ)", "format": "cell-based, human"}, "[3]": {"tested_on": "in vitro co-culture", "assay": "Side effects of high drug concentrations in in vitro co-culture", "format": "cell-based", "settings": "in vitro co-culture condition"}, "[4]": {"tested_on": "ALS motor unit (iALS-MN spheroid and iPSC-derived skeletal muscle fiber bundle)", "assay": "Drug treatment of ALS motor unit model, muscle contraction by optical stimulation", "format": "cell-based, human", "settings": "1-Hz optical stimulation, n=180; untreated ALS ~32.3%", "description": "Epifluorescence and confocal images were acquired using a Zeiss Axiovert 200 microscope and an Olympus FV-1000 confocal microscope, respectively. 3D reconstruction and analysis of confocal images were performed with IMARIS software (Bitplane). Muscle contraction measurement was performed in a stage-top incubator (INUBG2TF-WSKM-SET, Tokai Hit) on Axiovert 200, and image sequences were captured using AxioVision. Automated tracking of the local deformation of the skeletal muscle cells and deflection of the pillars upon light excitation were carried out using ImageJ and Python script with an OpenCV package. Formulas for calculating muscle contraction force from pillar displacements include:\nTo avoid single-cell attachment to the glass bottom, the microfluidic device was incubated with 4% Pluronic F-127 (Sigma) in the incubator for 1 hour, rinsed with distilled water, and dried. […]\nhESC-derived NSCs and iPSC-derived NSCs from a patient with sporadic ALS were infected with an AAV-CAG-ChR2H134R-tdTomato-WPRE plasmid to express a mutated variant of the light-sensitive ion channel, channelrhodopsin-2H134R. […] The cells were cultured for 4 days, expanded for another 3 days, and sorted by fluorescence-activated cell sorting (BD Biosciences, FACSAria II) with strong expression of tdTomato. […]"}}, "data": [{"compound": "N[C@@H](CCC(=O)O)C(=O)O", "note": "[glutamic acid]", "values": [{"measurement": "average contraction force", "setting": "[1]", "result": "~0.5", "unit": "pN"}, {"measurement": "average frequency of muscle contractions", "setting": "[1]", "result": 0.7, "unit": "Hz"}, {"measurement": "morphology after prolonged treatment", "setting": "[1]", "result": "neurite regression and muscle atrophy"}, {"measurement": "muscle contraction after prolonged treatment", "setting": "[1]", "result": "no muscle contraction was observed"}, {"measurement": "muscle contraction force", "setting": "[1]", "result": "relatively decreased"}, {"measurement": "muscle contraction frequency", "setting": "[1]", "result": "dropped"}, {"measurement": "muscle contraction with chemical stimulation", "setting": "[1]", "result": "significant loss of function"}, {"measurement": "muscle contraction with electrical stimulation", "setting": "[1]", "result": "no significant difference"}, {"measurement": "neurotoxic effect / myotoxicity", "setting": "[1]", "result": "mainly caused a neurotoxic effect but no observable myotoxicity"}]}, {"compound": "NC1=N[C@H](O)[C@H]2[C@H]3O[C@]4(O)O[C@@H]([C@@H](O)[C@@]2(N1)[C@@H]4O)[C@]3(O)CO", "note": "[TTX, tetrodotoxin]", "values": [{"measurement": "muscle contraction after rinsing away the TTX", "setting": "[2]", "result": "partially recovered"}, {"measurement": "muscle contraction under TTX", "setting": "[2]", "result": "completely prevented muscle contraction"}]}, {"compound": "COc1cc(Nc2c(C#N)cnc3cc(OCCCN4CCN(C)CC4)c(OC)cc23)c(Cl)cc1Cl", "note": "[bosutinib]", "values": [{"measurement": "concentration that can cause side effects", "setting": "[3]", "result": "over 800 uM"}]}, {"compound": "CO[C@H]1C[C@@H]2CC[C@@H](C)[C@@](O)(O2)C(=O)C(=O)N2CCCC[C@H]2C(=O)O[C@H]([C@H](C)C[C@@H]2CC[C@@H](O)[C@H](OC)C2)CC(=O)[C@H](C)/C=C(\\C)[C@@H](O)[C@@H](OC)C(=O)[C@H](C)C[C@H](C)/C=C/C=C/C=C/1C", "note": "[rapamycin]", "values": [{"measurement": "concentration that can cause side effects", "setting": "[3]", "result": "over 1 uM"}, {"measurement": "missed muscle contractions after light stimulation", "setting": "[4]", "result": "~16.1", "unit": "%"}]}, {"compound": "α-bungarotoxin [αBTX]", "values": [{"measurement": "muscle contraction in the presence of αBTX", "setting": "[2]", "result": "completely inhibited"}]}]}
